Measured values from patent US20140121101A1, “TERNARY FUNGICIDAL COMPOSITIONS COMPRISING A DITHIINO-TETRACARBOXAMIDE FUNGICIDE” (BAYER INTELLECTUAL PROPERTY GMBH, priority 2011, published 2014).

Test system: Alternaria solani
Experiment: Alternaria test (tomatoes)/preventive
Type: in vivo
Settings: tomato plants, preventive spray, evaluated 3 days after inoculation
Description: Alternaria Test (Tomatoes)/Preventive [table] To produce a suitable preparation of active compound, 1 part by weight of active compound is mixed with the stated amounts of solvent and emulsifier, and the concentrate is diluted with water to the desired concentration. To test for preventive activity, young plants are sprayed with the preparation of active compound at the stated rate of application. After the spray coating has dried on, the plants are inoculated with an aqueous spore suspension of Alternaria solani. The plants are then placed in an incubation cabinet at approximately 20° C. and a relative atmospheric humidity of 100%. The test is evaluated 3 days after the inoculation. 0% means an efficacy which corresponds to that of the untreated control while an efficacy of 100% means that no disease is observed.

| Structure (SMILES) | Efficacy in % found (activity found) (5 ppm a.i.) [%] | Efficacy in % found (activity found) (0.5 ppm a.i.) [%] |
| --- | --- | --- |
| Cn1c(=O)c2sc3c(=O)n(C)c(=O)c3sc2c1=O [(1.1), 2,6-dimethyl-1H,5H-[1,4]dithiino[2,3-c:5,6-c′]dipyrrole-1,3,5,7(2H,6H)-tetrone] | 0 | – |
| OC(Cc1ccccc1Cl)(Cn1nc[nH]c1=S)C1(Cl)CC1 (stereo not drawn) [(2.41), prothioconazole] | – | 4 |
| CON=C(C(=O)OC)c1ccccc1CON=C(C)c1cccc(C(F)(F)F)c1 [(3.22), trifloxystrobin] | – | 29 |
